# Key:
# [1] = system: Arg-1 in CD11b+/Ly6G+ granulocytic MDSCs; test: Arg-1 expression in granulocytic MDSCs of treated mice; assay type: in vivo, mouse; conditions: spleens of injected MD4+/−/Eμ-TCL1+/+ mice
# [2] = system: CD11b+/Ly6G+ granulocytic MDSCs; test: MDSC-mediated T cell suppression assay; assay type: in vivo, mouse; conditions: OT-I splenocytes, OVA peptide
# Procedure: FIGS. 24A-24J illustrate the finding that targeting XBP-1s in CLL cells of MD4^+/−/Eμ-TCL1^+/+ mice leads to reduced production of sIgM, and decreased numbers and function of granulocytic MDSCs. […]. Gated CD11c−/CD11b+ populations were analyzed for Ly6C^intermediate/Ly6G+ granulocytic MDSCs and Ly6C+/Ly6G− monocytic MDSCs. (FIG. 24C) Percentages of CD11b+ myeloid cells in the blood of MD4^+/−/Eμ-TCL1^+/+ and XBP-1^KO/MD4^+/−/Eμ-TCL1^+/+ mice were plotted as mean±SEM. (FIG. 24D) Percentages of CD11b+/Ly6C^intermediate/Ly6G+ granulocytic MDSCs in the blood of MD4^+/−/Eμ-TCL1^+/+ and XBP-1^KO/MD4^+/−/Eμ-TCL1^+/+ mice were plotted as mean±SEM. […] Gated CD11b+/Ly6C^intermediate/Ly6G+ granulocytic MDSCs were analyzed for the expression of Arg-1. (FIG. 24F) Mean fluorescence intensity (MFI) of Arg-1 in gated CD11b+/Ly6C^intermediate/Ly6G+ granulocytic MDSCs from spleens of 5 MD4^+/−/Eμ-TCL1^+/+ and 5 XBP-1^KO/MD4^+/−/Eμ-TCL1^+/+ mice was plotted as mean±SEM. […] The ^3H-thymidine uptake was measured, and the percentages of proliferation were calculated by comparing to the positive control and plotted as mean±SEM. […] The percentage of CLL cells in PBMCs for each mouse was determined by flow cytofluorometry on day 6 and day 13, and compared with the CLL burden data of the mouse on day 0 (100%). […]
# [3] = system: secretory IgM, B cells; conditions: cited from earlier work
# [4] = system: CLL; conditions: mouse, in vivo; cited from earlier work
# [5] = system: XBP-1s expression, CD5+ CLL cells from Eμ-TCL1 mice; conditions: cited from earlier work
# [6] = system: WaC3 cells; conditions: cited from earlier work
structure (smiles),measurement,setting,value
"O=c1oc2c(C3OCCCO3)c(O)ccc2c2c1CNCC2 [Compound 4, 7-(1,3-dioxan-2-yl)-8-hydroxy-1,2,3,4-tetrahydro-5H-chromeno[3,4-c]pyridin-5-one]",Arg-1 levels in granulocytic MDSCs versus DMSO-injected mice,[1],expressed decreased levels of Arg-1
same,suppression of T cell proliferation by MDSCs from injected mice,[2],lost their immunosuppressive function
same,production of sIgM by treated B cells,[3],inefficient in producing sIgM
same,growth of CLL,[4],retard the growth of CLL
same,expression of XBP-1s in CLL cells,[5],can inhibit the expression of XBP-1s in CLL cells
same,sensitivity of WaC3 cells,[6],sensitive

# From patent publication US11833137B2, “Substituted chromenones, IRE1 inhibitors, and methods of using same” (The Wistar Institute, priority 2018, dated 2023)
